In assay [1] the test system is M17-TAU P301L cells. The assay can be described thus: Cytosolic calcium (Fura-2) in M17-TAU P301L cell model of calcium dyshomeostasis. The assay is classed as cell-based. The settings on record: Homo sapiens, Fura-2 340/380 nm ratio, read-out: EC50 value of lowering cytosolic Ca^2+. As to the method: Cystosic calcium was measured by loading the cells with a medium containing Fura-2 AM (Sigma-Aldrich), a cell permeable fluorescent probe for Ca^2+. Fura-2-AM was dissolved in DMSO plus 20% Pluronic Acid (F-127) (Invitrogen) in a 1:1 ratio and diluted in medium to a final concentration of 0.5 μM. To this loading medium probenecid (Sigma-Aldrich) was added to a final concentration of 2.5 mM. Then, culture medium was replaced by loading medium and after incubation for 1 hour at 37° C. cells were washed twice and replaced with HBSS (Gibco) supplemented with 0.2% FBS and 0.02M HEPES. Next, changes in cytosolic calcium were measured using a FlexStation 3 microplate reader (Molecular Devices) and quantified ratiometric, by calculating changes in the amount of cytosolic Ca^2+ bound Fura-2 (fluorescence intensity at 340 nm) relative to the amount of Ca^2+ unbound Fura-2 (fluorescence intensity at 380 nm). Data was processed in SoftMax Pro 5.4.6 software (Molecular Devices).
In addition compounds were tested to lower the elevated cytosolic calcium levels. In the presence of the compounds these cytosolic calcium levels were decreased.
Compounds were tested to lower the elevated cytosolic Ca^2+ levels in the cell model of calcium dyshomeostasis (FIG. 1B) as described in example 10.
Exemplary compounds of the present invention are shown in Table 2, with their chemical structure and their EC50 value of lowering cytosolic Ca^2+ (expressed in μg/ml).

For assay [2], the system named is M17-TAU P301L cells. Kind of assay: TAU-induced toxicity: LDH leakage of retinoic acid incubated M17-TAU P301L cells. The assay is classed as cell-based, human. The conditions noted are these: for EC50: Homo sapiens, reduction of LDH activity of retinoic acid incubated M17-TAU P301L cells, read-out: EC50 (μg/ml) TAU-induced toxicity. The source says:
A TAU expression plasmid was constructed by sub-cloning the cDNA of human TAU-P301L (encoding for TAU with proline 301 substituted by a leucine residue) into mammalian expression vector pcDNA3.1 resulting in plasmid pcDNA3.1-TAU P301L. Plasmids pcDNA3.1 and pcDNA3.1-TAU P301L were transfected to human neuroblastoma cells ([…]; ATCC No. CRL-2267) and independent clonal lines with the plasmids stably integrated into the genome were selected. […] Expression of the TAU P301L genes in the cell lines was confirmed by Western analysis.
In degenerated or dead cells lactate dehydrogenase (LDH) leaks out of the cells into the extracellular environment due to a loss of plasma-membrane integrity. This principle was used to determine cytotoxicity by quantifying the level of leaked LDH into the growth medium relative to the sum of total LDH activity from living cells and dead cells.
The detailed method for determining cytotoxicity was as follows: From appropriate precultures of M17-3.1 and M17-TAU(P301L) cells were seeded at 2500 cells/cm2 in Optimem Reduced Serum without phenol red (Gibco, Cat. 31985-047) supplemented with 1% fetal calf serum, 1 mM sodium pyruvate, 1× non-essential amino acids, 500 μg/ml G418 0.5× antibiotic/antimycotic. After 3 hours of incubation at 37° C./5% CO2 1 volume of Optimem Reduced Serum (same as described above; except without fetal calf serum) supplemented with 2.5 μM all-trans retinoic acid (ATRA) was added. The cells were further incubated for 7 days. Subsequently, LDH activity was determined using Promega Cytotox 96 Non-Radioactive cytotoxicity assay, (Cat. G1780) according the supplier's instructions.
The M17-TAU P301L cell line made it possible to assess the ability of novel compounds to counteract TAU cytotoxicity. […] These measurements were used to calculate EC50 values.
Exemplary compounds of the present invention are shown in Table 1, with their chemical structure and their EC50 value (expressed in μg/ml) as determined from example 12 in the TAU-induced toxicity experiment.
(LDH in the medium is a marker of cell lysis.)

Converted amounts (≈) assume the structure as drawn.

The source of these data is patent US11939324B2, “Compounds for the treatment of epilepsy, neurodegenerative disorders and other CNS disorders” (reMYND N.V., priority 2017, dated 2024).

For `O=C(NCCc1c[nH]c2ccc(F)cc12)c1cc(Cc2cc(F)cc(F)c2)on1` [Compound 3], the EC50 in the assay with M17-TAU P301L cells [1] is 2.4 ng/mL; with M17-TAU P301L cells [2], 0.0021 µg/mL (≈ 5.26 nM). Regarding `O=C(NCCc1c[nH]c2ccc(F)cc12)c1cc(Cc2ccccc2F)on1` [Compound 7], the EC50 in the assay on M17-TAU P301L cells [1] was found to be 4.7 ng/mL; in the assay on M17-TAU P301L cells [2], 0.0043 µg/mL (≈ 11.3 nM). In the same order, the values of `O=C(NCCc1c[nH]c2ccc(F)cc12)c1cc(Cc2ccc(F)cc2)on1` [Compound 4] are 3.5 ng/mL and 0.0022 µg/mL (≈ 5.77 nM).

On to `COC(=O)C1=C(C)NC(C)=C(C(=O)OC(C)C)C1c1cccc2nonc12` (stereo not shown) [isradepine, reference compound], for which, in the assay on M17-TAU P301L cells [2] (FIG. 2, M17-TAU P301L cells with RA), the “toxicity (LDH leaked into the medium) of RA-incubated cells” value is “toxicity is reduced”. `O=C(NCCc1c[nH]c2ccc(F)cc12)c1cc(Cc2ccc(F)cc2F)on1` [Compound 1]: the EC50 with M17-TAU P301L cells [1] was determined as 1 ng/mL; in the assay with M17-TAU P301L cells [2], 0.002 µg/mL (≈ 5.01 nM). For `O=C(NCCc1c[nH]c2ccc(F)cc12)c1cc(Cc2ccc(F)c(F)c2)on1` [Compound 2] the same measures were 1.4 ng/mL and 0.002 µg/mL (≈ 5.01 nM).

Turning to `O=C(NCCc1c[nH]c2ccc(F)cc12)c1cc(Cc2cccc(F)c2F)on1` [Compound 5], the EC50 in the assay on M17-TAU P301L cells [1] was 7.1 ng/mL; in the assay with M17-TAU P301L cells [2] it was 0.0028 µg/mL (≈ 7.01 nM).
